We go through 16 compounds from patent US20050004126A1 (priority 2001, published 2005).

The target in test [1] is MMP-13CD (catalytic domain of collagenase 3) (Homo sapiens, UniProt P45452). Nature of the test: Thiopeptolide hydrolysis assay, MMP-13.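 Further: inhibition of enzymatic thiopeptolide substrate cleavage (100 µM) in pH 6.0 MES buffer with CaCl2 and DTNB, comparing hydrolysis with versus without inhibitor.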
Method: (§1) They measure the amount by which a test compound reduces the hydrolysis of a thiopeptolide substrate caused by a matrix metalloproteinase enzyme.
Thiopeptolide substrates show virtually no decomposition or hydrolysis in the absence of a matrix metalloproteinase enzyme. A typical thiopeptolide substrate commonly utilized for assays is Ac-Pro-Leu-Gly-thioester-Leu-Leu-Gly-OEt. A 100 μL assay mixture will contain 50 mM of 2-morpholinoethane sulfonic acid monohydrate (MES, pH 6.0) 10 mM CaCl2, 100 μM thiopeptolide substrate, and 1 mM 5,5′-dithio-bis-(2-nitro-benzoic acid) (DTNB). […] Assays are carried out with and without matrix metalloproteinase inhibitor compounds, and the amount of hydrolysis is compared for a determination of inhibitory activity of the test compounds.
Test [2] concerns the target T1, MMP-1FL (full-length interstitial collagenase) (Homo sapiens, UniProt P03956).
T1 sequence (P03956 100-469): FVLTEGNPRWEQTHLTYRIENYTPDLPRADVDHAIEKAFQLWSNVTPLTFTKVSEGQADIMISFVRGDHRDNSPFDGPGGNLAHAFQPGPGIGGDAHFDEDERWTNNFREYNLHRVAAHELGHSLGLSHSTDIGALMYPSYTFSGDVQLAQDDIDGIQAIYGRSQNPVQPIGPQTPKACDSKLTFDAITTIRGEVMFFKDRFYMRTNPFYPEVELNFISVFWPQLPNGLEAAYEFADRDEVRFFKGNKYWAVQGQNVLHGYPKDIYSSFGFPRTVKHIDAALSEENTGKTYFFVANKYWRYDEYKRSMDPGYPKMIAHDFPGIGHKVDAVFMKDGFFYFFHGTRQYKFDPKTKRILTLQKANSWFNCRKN
Nature of the test: Thiopeptolide hydrolysis assay, MMP-1. The test is classed as biochemical. To be noted: read-out: MMP01 IC50.
Method: as §1
Thiopeptolide substrates show virtually no decomposition or hydrolysis in the absence of a matrix metalloproteinase enzyme. A typical thiopeptolide substrate commonly utilized for assays is Ac-Pro-Leu-Gly-thioester-Leu-Leu-Gly-OEt. A 100 μL assay mixture will contain 50 mM of 2-morpholinoethane sulfonic acid monohydrate (MES, pH 6.0) 10 mM CaCl2, 100 μM thiopeptolide substrate, and 1 mM 5,5′-dithio-bis-(2-nitro-benzoic acid) (DTNB). […] The change in absorbance at 405 nm is monitored on a Thermo Max microplate reader (moleucular Devices, Menlo Park, Calif.) at room temperature (22° C.). […] Assays are carried out with and without matrix metalloproteinase inhibitor compounds, and the amount of hydrolysis is compared for a determination of inhibitory activity of the test compounds.

Test [3] deals with MMP-3CD (catalytic domain of stromelysin) (Homo sapiens, UniProt P08254). Nature of the test: Thiopeptolide hydrolysis assay, MMP-3.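 Further: inhibition of thiopeptolide substrate (100 µM) cleavage by the MMP-3 catalytic domain, detected with DTNB at pH 6.0 with CaCl2, hydrolysis compared against runs lacking inhibitor.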 The test is classed as biochemical. Particulars: read-out: MMP03 IC50.
Chain of MMP-3CD (catalytic domain of stromelysin) (P08254 100-272 limits assumed): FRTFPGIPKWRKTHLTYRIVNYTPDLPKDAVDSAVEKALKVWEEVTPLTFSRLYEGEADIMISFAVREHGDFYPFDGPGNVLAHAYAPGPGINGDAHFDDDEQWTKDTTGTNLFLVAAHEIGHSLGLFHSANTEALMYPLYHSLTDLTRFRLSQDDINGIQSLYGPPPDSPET

Like-named read-outs stand apart in the source and are kept apart here.

With `COC(=O)c1ccc(CNC(=O)c2cccc(C(=O)NCc3cccc(OC)c3)c2)cc1`, the IC50 was 255 nM in test [1] (MMP13 IC50 (nM), Table II); greater than 100 µM in test [2] (Table II); 64 µM in test [3] (Table II).

With `COc1cccc(CNC(=O)c2cccc(C(=O)OCc3ccc(C(=O)O)cc3)c2)c1`, the IC50 in test [1] (MMP13 IC50 (nM), Table II) was 44 nM; in test [2] (Table II) it was greater than 100 µM; in test [3] (Table II), greater than 100 µM.

As for `COc1cccc(CNC(=O)c2cccc(C(=O)NCc3ccc([N+](=O)[O-])cc3)c2)c1`, the IC50 in test [1] (MMP13 IC50 (nM), Table II) was 1140 nM; in test [2] (Table II) it was greater than 100 µM; in test [3] (Table II), greater than 100 µM.

Regarding `O=C(O)CN(Cc1ccccc1)C(=O)c1cccc(C(=O)NCc2ccc3c(c2)OCO3)c1`, the IC50 in test [1] (MMP13 IC50 (nM), Table II) is 915 nM; in test [2] (Table II), greater than 100 µM; in test [3] (Table II), greater than 100 µM.

`CC(=O)c1ccc(C(=O)OCc2ccccc2)cc1C(=O)OCc1ccccc1` [4-Acetyl-isophthalic acid dibenzyl ester]: the IC50 was 8200 nM in test [1] (MMP13 IC50 (nM), Table II); greater than 100 µM in test [2] (Table II); greater than 100 µM in test [3] (Table II).

As for `COc1cccc(CNC(=O)c2ccc(OC)c(C(=O)NCc3cccc(OC)c3)c2)c1` [4-Methoxy-N,N′-bis-(3-methoxy-benzyl)-isophthalamide], the IC50 is 180 nM in test [1] (MMP13 IC50 (nM), Table II); greater than 100 µM in test [2] (Table II); greater than 100 µM in test [3] (Table II).

With `COc1ccc(C(=O)NCc2ccc(C)cc2)cc1C(=O)NCc1ccc(C)cc1` [4-Methoxy-N,N′-bis-(4-methyl-benzyl)-isophthalamide], the IC50 in test [1] (MMP13 IC50 (nM), Table II) is 7250 nM; in test [2] (Table II), greater than 100 µM; in test [3] (Table II), greater than 100 µM.

For `COc1ccc(C(=O)OCc2ccccc2)cc1C(=O)OCc1ccccc1` [4-Methoxy-isophthalic acid dibenzyl ester], the IC50 is 900 nM in test [1] (MMP13 IC50 (nM), Table II); greater than 100 µM in test [2] (Table II); greater than 100 µM in test [3] (Table II).

`COc1ccc(C(=O)OCc2ccncc2)cc1C(=O)OCc1ccncc1` [4-Methoxy-isophthalic acid dipyridin-4-ylmethyl ester]: the IC50 in test [1] (MMP13 IC50 (nM), Table II) is 255 nM; in test [2] (Table II), greater than 100 µM; in test [3] (Table II), greater than 100 µM.

Regarding `Nc1cc(C(=O)OCc2ccccc2)cc(C(=O)OCc2ccccc2)c1` [5-Amino-isophthalic acid dibenzyl ester], the IC50 in test [1] (MMP13 IC50 (nM), Table II) is 1100 nM; in test [2] (Table II), greater than 100 µM; in test [3] (Table II) it was 73 µM.

Turning to `COc1ccc(CNC(=O)c2cn3c(=O)n(Cc4ccc(Cl)c(Cl)c4)c(=O)cc3s2)cc1` [6-(3,4-Dichloro-benzyl)-5,7-dioxo-6,7-dihydro-5H-thiazolo[3,2-c]pyrimidine-2-carboxylic acid 4-methoxy-benzylamide], the IC50 in test [1] (MMP13 IC50 (μM), Table 1b) is 84 nM; in test [2] (Table 1b), greater than 100 µM; in test [3] (Table 1b) it was greater than 100 µM.

Take `O=C(OCc1cccc(F)c1)c1cccc(C(=O)OCc2cccc(F)c2)c1` [Isophthalic acid bis-(3-fluoro-benzyl) ester]: the 50% inhibitory concentration (IC50) in test [1] (MMP13 IC50 (nM), Table II) was 7830 nM; in test [2] (Table II), greater than 100 µM; in test [3] (Table II), greater than 30 µM.

For `COc1cccc(COC(=O)c2cccc(C(=O)OCc3cccc(OC)c3)c2)c1` [Isophthalic acid bis-(3-methoxy-benzyl) ester], the IC50 in test [1] (MMP13 IC50 (nM), Table II) is 1150 nM; in test [2] (Table II) it was greater than 100 µM; in test [3] (Table II), greater than 100 µM.

Regarding `O=C(OCc1ccc(F)cc1)c1cccc(C(=O)OCc2ccc(F)cc2)c1` [Isophthalic acid bis-(4-fluoro-benzyl) ester], the half-inhibitory concentration (IC50) is 2330 nM in test [1] (MMP13 IC50 (nM), Table II); greater than 100 µM in test [2] (Table II); greater than 100 µM in test [3] (Table II).

As to `COc1ccc(COC(=O)c2cccc(C(=O)OCc3ccc(OC)cc3)c2)cc1` [Isophthalic acid bis-(4-methoxy-benzyl) ester], the IC50 was 1080 nM in test [1] (MMP13 IC50 (nM), Table II); greater than 100 µM in test [2] (Table II); 51 µM in test [3] (Table II).

As for `O=C(OCc1ccccc1)c1cccc(C(=O)OCc2ccccc2)c1` [Isophthalic acid dibenzyl ester], the IC50 in test [1] (MMP13 IC50 (nM), Table II) was 2300 nM; in test [2] (Table II), greater than 100 µM; in test [3] (Table II), greater than 30 µM.
